From US9227956B2 (Pfizer Inc., priority 2013, dated 2016) come the findings set out here.

As usually defined, the IC50 is the point on the concentration scale where inhibition reaches its midpoint.

Data set [1] deals with human PCSK9. Description: PCSK9 AlphaLISA assay, PCSK9 lowering in WT7 cells. Particulars: WT7 cells (Huh7 stably over-expressing human PCSK9); secreted PCSK9 by AlphaLISA; overnight incubation (16-24 h); top concentration 20 μM; read-out: Cell Based PCSK9 IC50. From the text:
An in-vitro AlphaLISA assay (Perkin Elmer) was developed in order to quantitate the level of PCSK9 secreted into the cell culture media following compound treatment. To detect and measure PCSK9 protein an in-house generated anti-PCSK9 antibody was coupled to AlphaLISA acceptor beads by an external vendor (PerkinElmer) and a second internally developed anti-PCSK9 antibody with an epiptope distinct from that of the acceptor beads was biotinylated in house. Streptavidin coated-donor beads (Perkin Elmer) are also included in the assay mixture which then binds the biotinylated anti-PCSK9 antibody and in the presence of PCSK9 this donor complex and acceptor beads are brought into close proximity. […] The ability of compound to modulate PCSK9 protein levels in conditioned media by AlphaLISA was assessed in the human hepatocellular carcinoma cell line Huh7, stably over-expressing human PCSK9. […] Following plasmid transfection the stable WT7 clone was identified and maintained under Zeocin selection. Compound screening was performed in 384-well plates where WT7 cells were plated at a density of 7500 cells per well in 20 μL of tissue culture media containing compound in an eleven point, 0.5 log dilution format at a high treatment concentration of 20 μM in a final volume of 0.5% DMSO. In additional to these test compound conditions each screening plate also included wells that contained 20 μM puromycin as a positive assay control defined as high percent effect, HPE, as well as wells containing media in 0.5% DMSO as a negative treatment control defined as zero percent effect, ZPE. After overnight compound incubation (16-24 h) the tissue culture media was collected and an aliquot from each sample was transferred to individual wells of a 384-well white Optiplate (Perkin Elmer). The coupled antibodies and donor beads were added to the assay plates in a buffer composed of 30 mM Tris pH 7.4, 0.02% Tween-20 and 0.02% Casein. Anti-PCSK9 acceptor beads (final concentration of 10 μg/mL) and anti-PCSK9 biotinylated antibody (final concentration of 3 nM) were added and incubated for 30 minutes at room temperature followed by the addition of the streptavidin donor beads (final concentration 40 μg/mL) for an additional 60 minutes. Additionally a standard curve was generated where AlphaLISA reagents were incubated in wells spiked with recombinant human PCSK9 diluted in tissue culture media from 5000 ng/mL to 0.6 ng/mL. […] The test compound data were converted into percent effect, using the ZPE and HPE controls as 0% and 100% activity, respectively. The equation used for converting each well reading into percent effect was:
[formula] IC50 was then calculated and reported as the midpoint in the percent effect curve in molar units and the values are reported under the Cell Based PCSK9 IC50 (μM) column header within Table 1 Biological Data. Additionally, to monitor the selectivity of compound response for PCSK9 the level of a second secreted protein, Transferrin, was measured from the same conditioned media treated with test compound by AlphaLISA. […] To detect and quantify effects on Transferrin 0.01 mL of the culture media was transferred to a 384-well white Optiplate and 0.01 mL of media was added to bring the volume to 0.02 ml. Anti-Transferrin acceptor beads were added to a final concentration of 10 μg/mL, biotinylated anti-Transferrin at 3 nM and streptavidin donor beads at 40 μg/mL. Percent effect and IC50 for Transferrin was computed in a similar manner as that described for PCSK9.
A general note: In Alpha technology, singlet oxygen from a donor bead excites a nearby acceptor bead.

Data set [2] deals with human PCSK9. Briefly: Cell Free PCSK9 Assay (PCSK9-luciferase RNA translated in HeLa cell lysate). Format: biochemical. Particulars: 30° C. for 45 minutes, luciferase readout, top concentration 100 μM. On the procedure: In order to eliminate the permeability barrier inherent to the WT7 and SCHH cell-based assays a cell-free system was also established to access compound activity. […] The construct was then in-vitro transcribed using the MEGAscript T7 Kit (Life Technologies) and RNA subsequently purified incorporating the MEGAclear Kit (Life Technologies) according to manufacturer's protocols. […] Growth was in a 50 L wavebag at a rocker speed of 25 rpm and angle 6.1 with 5% CO2 and 0.2 LPM flow rate with cells harvested at a density of 2-2.5e6/ml. Lysates additionally contained 1 tablet of Roche cOmplete-EDTA protease inhibitors per 50 ml with tris(2-carboxyethyl)phosphine (Biovectra) substituted for dithiothreitol, and were clarified by an additional final centrifugation at 10,000 rpm in a Sorvall SS34 rotor at 4° C. for 10 minutes. Compound screening was performed in 384-well plates in an eleven point, 0.5 log dilution format at a top test compound concentration of 100 μM in a final volume of 0.5% DMSO. […] Upon assay completion 1 μL from each reaction solution was removed and transferred to a second 384-well Optiplate (Perkin Elmer) containing 24 μL of SteadyGlo (Promega) and signal intensity was measured on the Envision (Perkin Elmer) using the enhanced luminescence protocol. […] The test compound data were converted into percent effect, using the ZPE and HPE controls as 0% and 100% activity, respectively, applying Equation 1 above. IC50 was then calculated and reported as the midpoint in the percent effect curve in molar units and the values are reported under the Cell Free PCSK9 IC50 (μM) column header within Table 1 Biological Data.

For a further data set, the system named is PCSK9. Description: PCSK9 lowering in sandwich culture human hepatocytes (SCHH). It is filed as cell-based. Particulars: maximum response versus vehicle. The method, then: Test compound in-vitro pharmacokinetic and pharmacodynamic relationships were measured in sandwich culture primary cryopreserved human hepatocytes. Within these studies SCHH cells (BD Biosciences IVT) were thawed at 37° C. then placed on ice, after which the cells were added to pre-warmed (37° C.) In VitroGRO-HT media and centrifuged at 50×g for 3 min. The cell pellet was re-suspended to 0.8×10^6 cells/mL in InVitroGRO-CP plating medium and cell viability determined by trypan blue exclusion. On day 1, hepatocyte suspensions were plated in BioCoat 96-well plates at a density of 80000 cells/well in a volume of 0.1 mL/well. After 18 to 24 hours of incubation at 37° C. in 5% CO2, cells were overlaid with ice-cold 0.25 mg/mL BD Matrigel Matrix Phenol Red-Free in incubation medium at 0.1 mL/well. Cultures were maintained at 37° C. in 5% CO2 in InVitroGRO-HI (FBS-free media), which was replaced every 24 hours and time course treatments were initiated on day 5. Prior to compound treatment cell plates were washed 3 times with 0.1 mL/well InVitroGRO-HI and 0.09 mL of media was added back in preparation for the compound additions. 1 uL of either DMSO or compound DMSO stocks at 30 mM, 10 mM, 3 mM and 1 mM were stamped into 96 well V bottom polypropylene plates. 0.099 mL of media was added to the compound plate and mixed thoroughly before the addition of 0.010 mL from the interim compound plate to the cell plate. […] At the indicated time, 0.08 mL of media was removed from the cell plates and frozen for subsequent analysis of secreted PCSK9 by AlphaLISA and for determination of drug levels in the media by liquid chromatography-tandem mass spectrometry (LC-MS/MS). The remaining media was then aspirated and the cell layers were washed 3× with ice cold Hanks Balanced Salt Solution (HBSS) under shaking conditions to remove the matrigel overlay and plates were then stored at −20° C. for subsequent determination of drug levels in the cells by LC-MS/MS. AlphaLISA determination of PCSK9 protein levels within the conditioned media was performed ultilizing the identical reagents and detection protocols described above for the WT7 cells.

`Cc1cccnc1N(C(=O)c1ccc(-c2cnn(C)c2C(=O)NS(C)(=O)=O)cc1)[C@@H]1CCCNC1` [Example 28, 1-methyl-4-(4-{(3-methylpyridin-2-yl)[(3R)-piperidin-3-yl]carbamoyl}phenyl)-N-(methylsulfonyl)-1H-pyrazole-5-carboxamide]: the half-maximal inhibitory concentration (IC50) with human PCSK9 [1] is > 20 µM; in the data set on human PCSK9 [2], 16.8 µM.

In the case of `Cn1ncc(-c2ccc(C(=O)N(c3ncccc3Cl)[C@@H]3CCCNC3)cc2)c1C(=O)NO` [Example 25, 4-(4-{(3-chloropyridin-2-yl)[(3R)-piperidin-3-yl]carbamoyl}phenyl)-N-hydroxy-1-methyl-1H-pyrazole-5-carboxamide], the 50% inhibitory concentration (IC50) is > 20 µM with human PCSK9 [1] and 2.97 µM in the data set on human PCSK9 [2].

`CCC(=O)OC(CC)n1nnc(-c2c(-c3ccc(C(=O)N(c4ncccc4C)[C@@H]4CCCNC4)cc3)cnn2C)n1` (single isomer, unassigned) [Example 47]: the IC50 with human PCSK9 [1] is > 20 µM. Further, in the data set on PCSK9 (at 6 h at 30 uM), the “Sandwich Culture Hepatocyte (SCHH) PCSK9 Lowering” value was determined as 12% at 6 h at 30 uM.

On to `Cn1ncc(-c2ccc(C(=O)N(c3nccc4ccccc34)[C@@H]3CCCNC3)cc2)c1C(=O)O` [Example 4, 4-(4-{isoquinolin-1-yl[(3R)-piperidin-3-yl]carbamoyl}phenyl)-1-methyl-1H-pyrazole-5-carboxylic acid], for which the IC50 was > 20 µM in the data set on human PCSK9 [1] and 3.8 µM with human PCSK9 [2].

In the data set on human PCSK9 [2], `CCOC(=O)OC(C)OC(=O)c1c(-c2ccc(C(=O)N(c3nccc4ccccc34)[C@@H]3CCCNC3)cc2)cnn1C` (stereo partly drawn) [Example 11, 1-[(ethoxycarbonyl)oxy]ethyl 4-(4-{isoquinolin-1-yl[(3R)-piperidin-3-yl]carbamoyl}phenyl)-1-methyl-1H-pyrazole-5-carboxylate] had an IC50 of 2.1 µM.

`Cn1ncc(-c2ccc(C(=O)N(c3ncccc3Cl)[C@@H]3CCCNC3)cc2)c1C(=O)NS(=O)(=O)C(F)(F)F` [Example 22, 4-(4-{(3-chloropyridin-2-yl)[(3R)-piperidin-3-yl]carbamoyl}phenyl)-1-methyl-N-[(trifluoromethyl)sulfonyl]-1H-pyrazole-5-carboxamide]: the IC50 in the data set with human PCSK9 [1] is > 20 µM; in the data set with human PCSK9 [2], 5.8 µM.

As for `CCOC(=O)O[C@@H](C)n1nnc(-c2c(-c3ccc(C(=O)N(c4ncccc4C)[C@@H]4CCCNC4)cc3)cnn2C)n1` [Example 30, ethyl (1S)-1-{5-[1-methyl-4-(4-{(3-methylpyridin-2-yl)[(3R)-piperidin-3-yl]carbamoyl}phenyl)-1H-pyrazol-5-yl]-2H-tetrazol-2-yl}ethyl carbonate], in the data set with human PCSK9 [1], the half-inhibitory concentration (IC50) is > 16.7 µM. Besides, the “Sandwich Culture Hepatocyte (SCHH) PCSK9 Lowering” value in the data set with PCSK9 (at 8 h at 30 μM) came out at 11% at 8 h at 30 uM.

Take `CCOC(=O)OC(C)OC(=O)c1c(-c2ccc(C(=O)N(c3nccc4ccn(C)c34)[C@@H]3CCCNC3)cc2)cnn1C` (stereo partly drawn) [Example 14, 1-[(ethoxycarbonyl)oxy]ethyl 1-methyl-4-(4-{(1-methyl-1H-pyrrolo[2,3-c]pyridin-7-yl)[(3R)-piperidin-3-yl]carbamoyl}phenyl)-1H-pyrazole-5-carboxylate]: the IC50 in the data set with human PCSK9 [1] was 4.5 µM. The “Sandwich Culture Hepatocyte (SCHH) PCSK9 Lowering” value in the data set with PCSK9 (at 8 h at 30 μM) was determined as 54% at 8 h at 30 μM.

For the compound `Cn1ncc(-c2ccc(C(=O)N(c3ncccc3Cl)[C@@H]3CCCNC3)cc2)c1-c1nn[nH]n1` [Example 26, N-(3-chloropyridin-2-yl)-4-[1-methyl-5-(2H-tetrazol-5-yl)-1H-pyrazol-4-yl]-N-[(3R)-piperidin-3-yl]benzamide], the IC50 in the data set with human PCSK9 [1] is > 20 µM; in the data set with human PCSK9 [2], 5.75 µM.

With `CCOC(=O)O[C@H](C)n1nnc(-c2c(-c3ccc(C(=O)N(c4ncccc4C)[C@@H]4CCCNC4)cc3)cnn2C)n1` [Example 31, ethyl (1R)-1-{5-[1-methyl-4-(4-{(3-methylpyridin-2-yl)[(3R)-piperidin-3-yl]carbamoyl}phenyl)-1H-pyrazol-5-yl]-2H-tetrazol-2-yl}ethyl carbonate], the IC50 with human PCSK9 [1] was > 20 µM. Further, the “Sandwich Culture Hepatocyte (SCHH) PCSK9 Lowering” value in the data set on PCSK9 (at 8 h at 30 μM) turned out to be 19% at 8 h at 30 uM.

For the compound `Cn1ncc(-c2ccc(C(=O)N(c3ncccc3Cl)[C@@H]3CCCNC3)cc2)c1C(=O)NS(C)(=O)=O` [Example 27, 4-(4-{(3-chloropyridin-2-yl)[(3R)-piperidin-3-yl]carbamoyl}phenyl)-1-methyl-N-(methylsulfonyl)-1H-pyrazole-5-carboxamide], the half-maximal inhibitory concentration (IC50) with human PCSK9 [1] is > 20 µM; in the data set on human PCSK9 [2], 14.3 µM.

For the compound `O=C(c1ccc(-c2cnn3cccnc23)cc1)N(c1ncccc1Cl)[C@@H]1CCCNC1` [Example 2, N-(3-chloropyridin-2-yl)-N-[(3R)-piperidin-3-yl]-4-(pyrazolo[1,5-a]pyrimidin-3-yl)benzamide], the results for the concentration for half-maximal inhibition (IC50) in the data set on human PCSK9 [1] and in the data set on human PCSK9 [2] were 1.7 µM and 0.69 µM, respectively.

Consider `Cn1ncc(-c2ccc(C(=O)N(c3ncccc3Cl)[C@@H]3CCCNC3)cc2)c1C(=O)Nc1nnn[nH]1` [Example 24, 4-(4-{(3-chloropyridin-2-yl)[(3R)-piperidin-3-yl]carbamoyl}phenyl)-1-methyl-N-(1H-tetrazol-5-yl)-1H-pyrazole-5-carboxamide], for which the IC50 with human PCSK9 [1] was > 20 µM; with human PCSK9 [2], 25.3 µM.
